{
  "source": "ChEMBL document CHEMBL1150186",
  "about": "“Chemical studies on Mexican plants used in traditional medicine, XV. Sesquiterpene evoninoate alkaloids from Hippocratea excelsa” (J Nat Prod, 1990)",
  "key": {"[1]": {"assay": "Toxicity against brine shrimp", "assay_type": "organism-based", "settings": "artemia, in vivo"}, "[2]": {"assay": "Cytotoxicity against mouse 9PS cells", "assay_type": "functional", "settings": "read-out: ED50 (the source's name)"}, "[3]": {"tested_on": "A549", "assay": "Cytotoxicity against human A549 cells", "assay_type": "functional", "settings": "read-out: ED50 (the source's name)"}, "[4]": {"tested_on": "HT-29", "assay": "Cytotoxicity against human HT-29 cells", "assay_type": "functional", "settings": "read-out: ED50 (the source's name)"}, "[5]": {"tested_on": "MCF7", "assay": "Cytotoxicity against human MCF7 cells", "assay_type": "functional", "settings": "read-out: ED50 (the source's name)"}},
  "data": [
    {"smiles": "CC(=O)OC[C@]12[C@H](OC(C)=O)[C@H](OC(C)=O)C3C(OC(C)=O)[C@@]14O[C@@]3(C)COC(=O)c1cccnc1[C@@H](C)[C@H](C)C(=O)OC([C@H](OC(=O)c1ccc(=O)n(C)c1)[C@@H]2OC(=O)c1ccccc1)[C@]4(C)O", "note": "(stereo not given in full) [HIPPOCRATEINE]", "values": [
      {"measurement": "LC50", "setting": "[1]", "value": 212, "unit": "µg/mL"},
      {"measurement": "EC50", "setting": "[2]", "value": 0.185, "unit": "µg/mL"},
      {"measurement": "EC50", "setting": "[3]", "value": "> 10", "unit": "µg/mL"},
      {"measurement": "EC50", "setting": "[4]", "value": "> 10", "unit": "µg/mL"},
      {"measurement": "EC50", "setting": "[5]", "value": "> 10", "unit": "µg/mL"}
    ]}
  ]
}
